{"source": "paper PMC12508156", "about": "“Non-canonical dihydrolipoyl transacetylase promotes chemotherapy resistance via mitochondrial tetrahydrofolate signaling” (Nature Communications, 2025)", "key": {"A549cisR cells": {"test_system": "A549cisR cells", "experiment": "Colony formation assay", "format": "cell-based, human", "conditions": "2 μg/ml cisplatin 24 h, then 10 days, normalised, n=1-3: biological replicates", "experimental": "(§1) Cell viability was determined using the CellTiter-Glo Luminescent Cell Viability Assay. […] Subsequently, the cells were cultured in complete medium for an additional 10 days, and the resulting colonies were visualized by staining with crystal violet and quantified using ImageJ software. For cell cycle analysis, cells fixed with 70% ethanol were stained with RNase A (100 µg/mL) and propidium iodide (50 μg/ml) for 30 min at 37 °C, and DNA content distribution was measured using flow cytometry (BD Symphony A3) and analyzed with FlowJo software (v10.9). Apoptotic cell death was assessed via FITC-conjugated annexin V and propidium iodide staining."}, "KB-3-1cisR cells": {"test_system": "KB-3-1cisR cells", "experiment": "Colony formation assay", "format": "cell-based, human", "conditions": "5 μg/ml cisplatin 24 h, then 10 days, normalised, n=1-3: biological replicates", "experimental": "as §1"}, "[1]": {"test_system": "KB-3-1cisR xenograft tumors", "experiment": "KB-3-1cisR xenograft tumor growth (volume, weight)", "format": "in vivo, athymic nu/nu mice", "set-up": "unit not given here", "conditions": "cisplatin 5 mg/kg i.p. twice a week, endpoint, n=1-8: individual mice, listed as cis", "experimental": "All animal procedures were conducted based on the protocol (DAR-PROTO-201700885) approved by the Emory University Institutional Animal Care and Use Committee. Female athymic nu/nu mice (Hsd:Athymic Nude-Foxn1nu, 6-week-old; Envigo) were housed under specific pathogen-free (SPF) conditions in the Emory University animal facility. […] Mice were subcutaneously injected into the flank with 1 × 10^6 KB-3-1^cisR cells with or without DLAT knockdown. […] Tumors were collected at the experimental endpoint, and tumor proliferation was assessed using Ki-67 IHC staining. The localization, penetration, and efficacy of DMp39 were monitored by assessing the acetyl-[…] levels in tumors and fluorescence imaging analysis using an IVIS imaging system. Drug-induced organ toxicities, including splenomegaly, liver damage, and kidney injury, were monitored by assessing spleen index, alanine transaminase activity, and cystatin C levels in plasma."}, "[2]": {"test_system": "KB-3-1cisR xenograft tumors", "experiment": "IHC of KB-3-1cisR xenograft tumors (Ac-K44 MTHFD2, MT-CO2, DLAT, Ki-67)", "format": "in vivo, athymic nu/nu mice", "set-up": "key: IHC intensity score 0 to 3+", "conditions": "KB-3-1cisR xenograft tumors (Figure 8J)", "from_the_text": "Formalin-fixed and paraffin-embedded tumor tissue specimens from HNSCC and NSCLC patients were obtained from the […] Cancer Tissue and Pathology Shared Resources. The Institutional Review Board (IRB) of Emory University approved using human specimens (IRB00003208 - HNSCC, IRB00098377 - NSCLC). Clinical samples were collected with informed consent according to the Health Insurance Portability and Accountability Act. Patients' clinical information was obtained through the […] Technology Applications Shared Resource. Tumors from HNSCC or NSCLC patients who received chemotherapy-containing regimens were used. Immunohistochemistry (IHC) staining of DLAT, acetyl-[…] MTHFD2, MT-CO2, and Ki-67 was performed based on the established protocol. Antigen retrieval was conducted in Tris-EDTA (pH 9.0) for acetyl-[…] MTHFD2 and MT-CO2 and sodium citrate (pH 6.0) for the remaining antigens. […] Assessment of positive DLAT, MT-CO2, and acetyl-[…] MTHFD2 staining intensity within tumor cells was performed using a scoring system ranging from 0 to 3+ based on IHC signal intensity. Mice were subcutaneously injected into the flank with 1 × 10^6 KB-3-1^cisR cells with or without DLAT knockdown. […] Tumors were collected at the experimental endpoint, and tumor proliferation was assessed using Ki-67 IHC staining. The localization, penetration, and efficacy of DMp39 were monitored by assessing the acetyl-[…] levels in tumors and fluorescence imaging analysis using an IVIS imaging system. Drug-induced organ toxicities, including splenomegaly, liver damage, and kidney injury, were monitored by assessing spleen index, alanine transaminase activity, and cystatin C levels in plasma."}, "GSH/GSSG": {"test_system": "GSH/GSSG", "experiment": "GSH/GSSG ratio (GSH/GSSG-Glo)", "format": "cell-based, human", "experimental": "Cellular metabolic states were examined through various assays. To gauge the levels of total intracellular or mitochondrial reactive oxygen species (ROS), cells were stained with CM-H2DCFDA or mitoSOX, respectively. Intracellular H2O2, NADPH, acetyl-CoA, and GSH/GSSG ratios were quantified using commercial assay kits as listed in the Reagents. Intracellular ATP levels were determined utilizing the ATP bioluminescent somatic cell assay and normalized to the total protein concentrations. The de novo synthesized RNA and proteins were assessed in cancer cells using commercial assays following the manufacturer’s protocols. In brief, O-propargyl-puromycin or uridine analog, 5-EU, was applied to stop translation or modify RNA. Polypeptides or modified RNA were measured using fluorescent azide with Ex/Em at 494/521 nm. PDC activity was determined by measuring the reduction of NAD+ to NADH during the conversion of pyruvate into acetyl-CoA.\nSupplementary Fig. 2: GSH/GSSG ratio and NADPH level change upon DLAT knockdown and cisplatin treatment. A549cisR (a) and KB-3-1cisR (b) cells were transduced with control or […]\nµg/ml; KB-3-1cisR: 5 µg/ml) for 24 h. The GSH/GSSG ratio and relative NADPH levels were measured using GSH/GSSG-Glo Assay and NADP/NADPH-Glo Assay, respectively. Error bars represent SD and are from 4 independent biological replicates for the upper panels of (a,b) and 3 for the lower panels of (a,b). P values were determined by one-way ANOVA.\n(1 picture or pasted object on this page, not shown here)"}}, "note": "Where “and” joins values, the source holds several entries; their conditions need not be identical. Identical values can stand only once."}
{"smiles": "N.N.[Cl][Pt][Cl]", "note": "[cisplatin]", "values": [{"measurement": "Colony formation assay", "setting": "A549cisR cells; A549cisR pLKO.1", "value": "1.111 and 0.9965 and 1.059"}, {"measurement": "Colony formation assay", "setting": "A549cisR cells; A549cisR shDLAT #1", "value": "0.545 and 0.5035 and 0.4723"}, {"measurement": "Colony formation assay", "setting": "A549cisR cells; A549cisR shDLAT #2", "value": "0.5398 and 0.5242 and 0.4931"}, {"measurement": "Colony formation assay", "setting": "KB-3-1cisR cells; KB-3-1cisR pLKO.1", "value": "0.9446 and 0.763 and 0.8564"}, {"measurement": "Colony formation assay", "setting": "KB-3-1cisR cells; KB-3-1cisR shDLAT #1", "value": "0.1843 and 0.1505 and 0.2102"}, {"measurement": "Colony formation assay", "setting": "KB-3-1cisR cells; KB-3-1cisR shDLAT #2", "value": "0.2154 and 0.1946 and 0.1246"}, {"measurement": "Tumor weight", "setting": "[1]; KB-3-1cisR pLKO.1 xenograft", "value": "0.88 and 0.77 and 0.52 and 1.65 and 1.63 and 1.39 and 1.43 and 1.01"}, {"measurement": "Tumor weight", "setting": "[1]; KB-3-1cisR shDLAT #1 xenograft", "value": "0.29 and 0.41 and 0.58 and 0.1 and 0.06 and 0.15 and 0.16 and 0.23"}, {"measurement": "Tumor weight", "setting": "[1]; KB-3-1cisR shDLAT #2 xenograft", "value": "0.63 and 0.5 and 0.66 and 0.02 and 0.08 and 0.19 and 0.34 and 0.36"}, {"measurement": "Ac-K44 (IHC score)", "setting": "[2]; n=1", "value": 2}, {"measurement": "DLAT (IHC score)", "setting": "[2]; n=1", "value": 2}, {"measurement": "MT-CO2 (IHC score)", "setting": "[2]; n=1", "value": 3}, {"measurement": "Ac-K44 (IHC score)", "setting": "[2]; n=2", "value": 3}, {"measurement": "DLAT (IHC score)", "setting": "[2]; n=2", "value": 3}, {"measurement": "MT-CO2 (IHC score)", "setting": "[2]; n=2", "value": 3}, {"measurement": "Ac-K44 (IHC score)", "setting": "[2]; n=3", "value": 2}, {"measurement": "DLAT (IHC score)", "setting": "[2]; n=3", "value": 2}, {"measurement": "MT-CO2 (IHC score)", "setting": "[2]; n=3", "value": 3}, {"measurement": "Ac-K44 (IHC score)", "setting": "[2]; n=4", "value": 2}, {"measurement": "DLAT (IHC score)", "setting": "[2]; n=4", "value": 3}, {"measurement": "MT-CO2 (IHC score)", "setting": "[2]; n=4", "value": 3}, {"measurement": "Ac-K44 (IHC score)", "setting": "[2]; n=5", "value": 2}, {"measurement": "DLAT (IHC score)", "setting": "[2]; n=5", "value": 3}, {"measurement": "MT-CO2 (IHC score)", "setting": "[2]; n=5", "value": 1}, {"measurement": "Ac-K44 (IHC score)", "setting": "[2]; n=6", "value": 2}, {"measurement": "DLAT (IHC score)", "setting": "[2]; n=6", "value": 2}, {"measurement": "MT-CO2 (IHC score)", "setting": "[2]; n=6", "value": 3}, {"measurement": "GSH/GSSG", "setting": "GSH/GSSG; A549cisR cells, pLKO.1, n=2", "value": 20.0066}, {"measurement": "GSH/GSSG", "setting": "GSH/GSSG; A549cisR cells, shDLAT, n=3", "value": 8.945}, {"measurement": "GSH/GSSG", "setting": "GSH/GSSG; KB-3-1cisR cells, shDLAT, n=1", "value": 6.046}, {"measurement": "GSH/GSSG", "setting": "GSH/GSSG; KB-3-1cisR cells, shDLAT, n=2", "value": 6.2227}]}
